Measured values from US20240226096A1, “TREATMENT OF MYELOPROLIFERATIVE DISEASES AND DISORDERS WITH INHIBITORS OF BET FAMILY BDII BROMODOMAIN” (POSEIDON INNOVATION 1, INC., priority 2022, published 2024).

Legend:
[1] = system: BaF3-EPOR-JAK2V617F cell line; assay: BaF3-JAK2(V617F)-EPOR cell line proliferation assay (CellTiter-Glo), combination study; type: cell-based; conditions: 96 hours, FIG. 1
Protocol: (§1) Test compounds are dissolved at 10 mM DMSO stock solution. Transfer 45 uL of stock solution to a 384 PP-plate. Perform 3 fold, 10-point dilution via transferring 15 uL compound into 30 μL DMSO by using TECAN (EVO200) liquid handler. The plates are spin at room temperature at 1,000 RPM for 1 minute and shake at a plate shaker for 2 minutes. Transfer Compound A and Compound B of diluted compound from compound source plate into the cell plate by using liquid handler Echo665. Harvest the cells from flask into cell culture medium and then count the cell number. Dilute the cells with culture medium to the desired density and 40 μL of cell suspension is added into 384-well plate contain compound. Low control is adding cell culture medium. The final seeding density for SET-2 and BaF3-EPOR-JAK2V617F cell lines are 2,000 cells/well and 1000 cells/well respectively. Cover the plates with lid and mix the plate on orbital shaker (700-900 rpm) for 1 min, transfer the plates into 37° C. 5% CO2 incubator for 4 days culture. After compound treatment for 96 hours, remove the plate from incubators and equilibrated at room temperature for 15 minutes. Add CellTiter-Glo reagent into each well.
(§2) Place the plate on an orbital shaker, and shake at 500-700 rpm to facilitate cell lysis and ATP extraction from the cells. Measure luminescence after 5-10 minutes using BMG.

SET-2 cell line = SET-2 cell line proliferation assay (CellTiter-Glo), combination study; type: cell-based; conditions: 96 hours, FIG. 2
Protocol: as §1, §2

[2] = in combination with Ruxolitinib

Cn1ccn(-c2ccc(-c3cc(F)cc(-c4cccc(N5CCN(C(C)(C)C)CC5)c4)c3O)cc2Cl)c1=O [Compound I-1, 1-(3″-(4-(tert-butyl)piperazin-1-yl)-3-chloro-5′-fluoro-2′-hydroxy-[1,1′:3′,1″-terphenyl]-4-yl)-3-methyl-1,3-dihydro-2H-imidazol-2-one]
suppresses proliferation: proliferation of the BaF3-EPOR-JAK2V617F cell line ([1]; compound alone) | proliferation of the BaF3-EPOR-JAK2V617F cell line [1, 2] | proliferation of the SET-2 cell line (SET-2 cell line; compound alone) | proliferation of the SET-2 cell line (SET-2 cell line; [2])
